Measurements as given in US4347361A, “4,5α-Epoxy-3-hydroxy or methoxy-7-(1-hydroxy-alkyl or 1-oxoalkyl)morphinan-6-one compounds” (SISA, Incorporated, priority 1980, dated 1982).

Experiments:
[1] = system: male CD-1 mice (acetic acid writhing); assay: acetic acid mouse writhing test (analgesic effects); type: in vivo, mice (male CD-1); settings: subcutaneous; for ED50: sc, 0.25 h, acetic acid i.p. 15 min post drug, read-out: ED50 (dose required to reduce the number of writhes by 50%); for ED50: Ia at dose: at 10 (mg/kg), Ia not defined; for % reduction of number of writhes (ED50 column, X%(Y)): at 10 mg/kg
Description: (A) Analgesic effects upon mice (acetic acid writhing test).
The analgesic effects of test compounds were determined in mice by use of the acetic acid writhing test described by B. A. Whittle, Brit. J. Pharmacol., 22:246 (1964). In this test at least three groups of five male CD-1 mice each were given subcutaneous doses of the test drug dissolved in either distilled water or distilled water acidified with HCl depending on the solubility of the compound. Fifteen (15) minutes post drug, 0.4 milliliter of a 0.75% or 1.0% or 0.6 milliliter of a 1.0% V/V acetic acid in distilled water solution was administered intraperitoneally. The number of writhes in a 20 minute interval beginning 5 minutes after the acetic acid injection were determined and compared with the number of writhes in control groups which had received only acetic acid.
Percent inhibition of writhing was calculated as: [formula]
The ED50 dose, i.e., the dose required to reduce the number of writhes by 50%, was determined graphically from a plot of % inhibition as a probit versus log dose. Confidence limits of 95% were calculated on the basis of those results falling in the range 16-84% inhibition. See Litchfield, J. T. and Wilcoxon, F., J. Pharmacol. Exp. Ther., 96:99, (1949).

[2] = system: male albino Wistar rats (morphine effect, tail flick); assay: narcotic antagonist activity, modified rat tail flick test (inhibition of morphine effect); type: in vivo; settings: intraperitoneal; for AD50: Ia at dose: at 10 (mg/kg), Ia not defined; for AD50: Ia at dose / AD50: X%(Y): vs ED80 morphine; for ED50: ip, 10 min before ED80 dose of morphine s.c., read-out: AD50 (dose required to inhibit the morphine effect by 50%)
Description: (B) Narcotic antagonist activity in rats (modified rat tail flick test).
The narcotic antagonist effects of test compounds were determined by a modification of the rat tail flick procedure of Harris and Pierson, J. Pharmacol. Exp. Ther. 143:141 (1964).
Male albino Wistar rats (100-120 g.) were used for this study. A rat's tail is so placed so as to cover a photocell. Heat is applied by a lamp in a reflector with a timer being connected to the lamp and photocell so that the timer goes on when the light is turned on and is turned off when the photocell is uncovered. A rheostat, incorporated into a heating lamp is used to adjust the intensity of the light falling on the tail of the rat such that the rat's control reaction time is from 1.2 to 5.8 seconds. Animals with a control reaction time outside this range are rejected. The rheostat adjustment is made only if a significant proportion (more than 1 out of every 10 rats) of the reaction times are outside the range of 1.2 to 5.8 seconds. Groups of five rats were used each time, and two control times were determined at least 30 minutes apart.
The test drug was given intraperitoneally and this was followed ten minutes later by an ED80 dose of morphine subcutaneously. The animals were retested at 20 minutes after the morphine injection. Control animals were given morphine only. […] The data were calculated as follows: [formula]
The data were plotted on log-probit paper and AD50 values, i.e., the dose required to inhibit the morphine effect by 50% within 95% confidence limits, were determined by the method of Litchfield and Wilcoxon.

| Structure (SMILES) | ED50 [1] | ED50 [2] | also measured |
| --- | --- | --- | --- |
| CCCCCC(=O)C1C[C@H]2[C@H]3Cc4ccc(OC)c5c4[C@@]2(CCN3C)[C@@H](O5)C1=O (stereo partly drawn) [MLS-5682] | 4 mg/kg | – | – |
| COc1ccc2c3c1O[C@H]1C(=O)C(C(=O)CCCc4ccccc4)C[C@H]4[C@@H](C2)N(C)CC[C@]314 (stereo partly drawn) [MLS-5683, 7-(4-Phenylbutyroyl)Dihydrocodeinone] | 0.41 mg/kg | – | – |
| COc1ccc2c3c1O[C@H]1C(=O)C(C(=O)CCc4ccccc4)C[C@H]4[C@@H](C2)N(C)CC[C@]314 (stereo partly drawn) [MLS-5688H] | 0.62 mg/kg | – | – |
| CCCCCC(=O)C1C[C@H]2[C@H]3Cc4ccc(O)c5c4[C@@]2(CCN3C)[C@@H](O5)C1=O (stereo partly drawn) [MLS-5689] | 0.76 mg/kg | – | – |
| CN1CC[C@]23c4c5ccc(O)c4O[C@H]2C(=O)C(C(=O)CCc2ccccc2)C[C@H]3[C@H]1C5 (stereo partly drawn) [MLS-5690] | 0.105 mg/kg | – | – |
| CN1CC[C@]23c4c5ccc(O)c4O[C@H]2C(=O)C(C(=O)CCCc2ccccc2)C[C@H]3[C@H]1C5 (stereo partly drawn) [MLS-5691, 7-(4-Phenylbutyroyl)Dihydromorphone] | 0.0052 mg/kg | – | – |
| CCCC(=O)C1C[C@H]2[C@H]3Cc4ccc(OC)c5c4[C@@]2(CCN3C)[C@@H](O5)C1=O (stereo partly drawn) [MLS-5692] | – | – | ED50: Ia at dose [1]: Ia |
| CCCCCC(C)(O)C1C[C@H]2[C@H]3Cc4ccc(O)c5c4[C@@]2(CCN3C)[C@@H](O5)C1=O (stereo partly drawn) [MLS-5694] | 2.9 mg/kg | – | – |
| CCCC(=O)C1C[C@H]2[C@H]3Cc4ccc(O)c5c4[C@@]2(CCN3C)[C@@H](O5)C1=O (stereo partly drawn) [MLS-5695] | 5.25 mg/kg | – | – |
| COc1ccc2c3c1O[C@H]1C(=O)C(C(C)=O)C[C@H]4[C@@H](C2)N(CC2CC2)CC[C@]314 (stereo partly drawn) [TR-5463] | – | – | % reduction of number of writhes (ED50 column, X%(Y)) [1]: 9%; AD50: Ia at dose [2]: Ia |
| CCCC(=O)C1C[C@H]2[C@H]3Cc4ccc(OC)c5c4[C@@]2(CCN3CC2CC2)[C@@H](O5)C1=O (stereo partly drawn) [TR-5464] | 2.81 mg/kg | 8.1 mg/kg | – |
| CC(=O)C1C[C@H]2[C@H]3Cc4ccc(O)c5c4[C@@]2(CCN3CC2CC2)[C@@H](O5)C1=O (stereo partly drawn) [TR-5475] | 4.05 mg/kg | 1.3 mg/kg | – |
| CCCC(=O)C1C[C@H]2[C@H]3Cc4ccc(O)c5c4[C@@]2(CCN3CC2CC2)[C@@H](O5)C1=O (stereo partly drawn) [TR-5476, 17-cyclopropylmethyl-4,5α-epoxy-3-hydroxy-7-butanoylmorphinan-6-one] | 4.65 mg/kg | 2.55 mg/kg | – |
| COc1ccc2c3c1O[C@H]1C(=O)C(C(C)(C)O)C[C@H]4[C@@H](C2)N(CC2CC2)CC[C@]314 (stereo partly drawn) [TR-5479] | – | – | ED50: Ia at dose [1]: Ia; AD50: X%(Y) ([2]; at 10 mg/kg): 41% |
| COc1ccc2c3c1O[C@H]1C(=O)C(C(C)(C)O)C[C@H]4[C@@H](C2)N(C)CC[C@]314 (stereo partly drawn) [TR-5492] | 4.5 mg/kg | – | – |
| CCCC(C)(O)C1C[C@H]2[C@H]3Cc4ccc(OC)c5c4[C@@]2(CCN3CC2CC2)[C@@H](O5)C1=O (stereo partly drawn) [TR-5499] | 0.42 mg/kg | – | AD50: X%(Y) ([2]; at 7 mg/kg): 12% |
| COc1ccc2c3c1O[C@H]1C(=O)C(C(=O)c4ccccc4)C[C@H]4[C@@H](C2)N(CC2CC2)CC[C@]314 (stereo partly drawn) [TR-5501] | 11.3 mg/kg | 8 mg/kg | – |
| CCCCCC(=O)C1C[C@H]2[C@H]3Cc4ccc(OC)c5c4[C@@]2(CCN3CC2CC2)[C@@H](O5)C1=O (stereo partly drawn) [TR-5504] | 5.7 mg/kg | – | AD50: Ia at dose [2]: Ia |
| CCCCCC(=O)C1C[C@H]2[C@H]3Cc4ccc(O)c5c4[C@@]2(CCN3CC2CC2)[C@@H](O5)C1=O (stereo partly drawn) [TR-5505] | 0.29 mg/kg | 22 mg/kg | – |

| Structure (SMILES) | ED50 [1] | ED50 [2] | also measured |
| --- | --- | --- | --- |
| O=C(c1ccccc1)C1C[C@H]2[C@H]3Cc4ccc(O)c5c4[C@@]2(CCN3CC2CC2)[C@@H](O5)C1=O (stereo partly drawn) [TR-5506] | 4.35 mg/kg | 0.24 mg/kg | – |
| COc1ccc2c3c1O[C@H]1C(=O)C(C(=O)C(C)C)C[C@H]4[C@@H](C2)N(CC2CC2)CC[C@]314 (stereo partly drawn) [TR-5509] | 7.5 mg/kg | 2.8 mg/kg | – |
| CC(C)C(=O)C1C[C@H]2[C@H]3Cc4ccc(O)c5c4[C@@]2(CCN3CC2CC2)[C@@H](O5)C1=O (stereo partly drawn) [TR-5511] | > 10 mg/kg | 0.81 mg/kg | – |
| CCCCC(=O)C1C[C@H]2[C@H]3Cc4ccc(OC)c5c4[C@@]2(CCN3CC2CC2)[C@@H](O5)C1=O (stereo partly drawn) [TR-5519] | > 10 mg/kg | – | AD50: Ia at dose [2]: Ia |
| CCCCC(=O)C1C[C@H]2[C@H]3Cc4ccc(O)c5c4[C@@]2(CCN3CC2CC2)[C@@H](O5)C1=O (stereo partly drawn) [TR-5520] | 1.59 mg/kg | – | AD50: X%(Y) ([2]; at 10 mg/kg): 77% |
| CCCCCC(C)(O)C1C[C@H]2[C@H]3Cc4ccc(O)c5c4[C@@]2(CCN3CC2CC2)[C@@H](O5)C1=O (stereo partly drawn) [TR-5538] | 0.28 mg/kg | 6.6 mg/kg | – |
| CCCCCCC(=O)C1C[C@H]2[C@H]3Cc4ccc(OC)c5c4[C@@]2(CCN3CC2CC2)[C@@H](O5)C1=O (stereo partly drawn) [TR-5539] | > 10 mg/kg | > 10 mg/kg | – |
| CCCCCCC(=O)C1C[C@H]2[C@H]3Cc4ccc(O)c5c4[C@@]2(CCN3CC2CC2)[C@@H](O5)C1=O (stereo partly drawn) [TR-5540] | 0.4 mg/kg | – | AD50: Ia at dose [2]: Ia |
| CCCC(C)(O)C1C[C@H]2[C@H]3Cc4ccc(O)c5c4[C@@]2(CCN3CC2CC2)[C@@H](O5)C1=O (stereo partly drawn) [TR-5543, 17-cyclopropylmethyl-4,5α-epoxy-3-hydroxy-7-(1-hydroxy-1-methylbutyl)morphinan-6-one] | 1.8 mg/kg | 2.8 mg/kg | – |
| CCCCC(C)(O)C1C[C@H]2[C@H]3Cc4ccc(OC)c5c4[C@@]2(CCN3CC2CC2)[C@@H](O5)C1=O (stereo partly drawn) [TR-5544] | – | – | % reduction of number of writhes (ED50 column, X%(Y)) [1]: 10%; AD50: Ia at dose [2]: Ia |
| CCCCC(C)(O)C1C[C@H]2[C@H]3Cc4ccc(O)c5c4[C@@]2(CCN3CC2CC2)[C@@H](O5)C1=O (stereo partly drawn) [TR-5551] | – | 2.5 mg/kg | % reduction of number of writhes (ED50 column, X%(Y)) [1]: 40% |
| CCC(=O)C1C[C@H]2[C@H]3Cc4ccc(OC)c5c4[C@@]2(CCN3CC2CC2)[C@@H](O5)C1=O (stereo partly drawn) [TR-5570] | – | 6.5 mg/kg | % reduction of number of writhes (ED50 column, X%(Y)) [1]: 11% |
| COc1ccc2c3c1O[C@H]1C(=O)C(C(=O)C(C)(C)C)C[C@H]4[C@@H](C2)N(CC2CC2)CC[C@]314 (stereo partly drawn) [TR-5571] | – | – | ED50: Ia at dose [1]: Ia; AD50: X%(Y) ([2]; at 10 mg/kg): 13% |
| CC(C)C(C)(O)C1C[C@H]2[C@H]3Cc4ccc(O)c5c4[C@@]2(CCN3CC2CC2)[C@@H](O5)C1=O (stereo partly drawn) [TR-5572] | 7.8 mg/kg | 2.2 mg/kg | – |
| CCC(=O)C1C[C@H]2[C@H]3Cc4ccc(O)c5c4[C@@]2(CCN3CC2CC2)[C@@H](O5)C1=O (stereo partly drawn) [TR-5573] | – | 0.51 mg/kg | ED50: Ia at dose [1]: Ia |
| CC(C)(C)CC(=O)C1C[C@H]2[C@H]3Cc4ccc(O)c5c4[C@@]2(CCN3CC2CC2)[C@@H](O5)C1=O (stereo partly drawn) [TR-5574] | – | > 10 mg/kg | ED50: Ia at dose [1]: Ia |
| COc1ccc2c3c1O[C@H]1C(=O)C(C(=O)c4ccc(F)cc4)C[C@H]4[C@@H](C2)N(CC2CC2)CC[C@]314 (stereo partly drawn) [TR-5575] | – | – | ED50: Ia at dose [1]: Ia; AD50: X%(Y) ([2]; at 10 mg/kg): 17% |
| COc1ccc2c3c1O[C@H]1C(=O)C(C(=O)Cc4ccccc4)C[C@H]4[C@@H](C2)N(CC2CC2)CC[C@]314 (stereo partly drawn) [TR-5577] | – | – | % reduction of number of writhes (ED50 column, X%(Y)) [1]: 21%; AD50: Ia at dose [2]: Ia |
| O=C(c1ccc(F)cc1)C1C[C@H]2[C@H]3Cc4ccc(O)c5c4[C@@]2(CCN3CC2CC2)[C@@H](O5)C1=O (stereo partly drawn) [TR-5579] | – | – | % reduction of number of writhes (ED50 column, X%(Y)) [1]: 29%; AD50: X%(Y) ([2]; at 10 mg/kg): 45% |
